# Data: patent publication US8552064B2, “Suramin and derivatives thereof as topical microbicide and contraceptive” (Eastern Virginia Medical School, priority 2005, dated 2013)
# Tests used:
# rabbit sperm = test: Rabbit contraceptive efficacy, ex-vivo sperm mixing; assay type: in vivo; settings: for inhibition of pregnancy rates (PR): 1 mM (1.4 mg/mL), Table 6: 0.1% (~1 mM); for Implantation Sites (Mean ± SD): 11 days post-insemination
# Protocol: Semen was collected from New Zealand White (NZW) male rabbits with the aid of an artifical vagina, pooled and adjusted with a modified Tyrode's albumin lactate pyruvate (TALP) medium to 50 million motile sperm per milliliter. Ovulation was induced in females by injection of 200 IU of human chorionic gonadotropin (hCG) intravenously. Under the ex-vivo (in-vitro) mixing protocol, sperm were incubated with indicated suramin test compounds in a tube for 15 minutes at 37° C. prior to insemination (0.5 mL) as described in Anderson R. A., et al. J. Androl., 21: 862-875 (2000). […] Sperm-compound contact, in this case, took place in vivo, inside the vagina. Insemination and administration of the compound was performed with a flexible, 12 cm long polyurethane catheter. The main endpoints for both protocols were the number of implantation sites counted 11 days after insemination and pregnancy rate. Such sites were counted by visual inspection of the tubes.
# [1] = system: human sperm acrosome reaction; test: Acrosome reaction ionophore challenge test (ARIC); assay type: cell-based
# Text: The acrosome reaction ionophore challenge test (ARIC) was used, as described in Cummins J. M., et al., J. Androl., 12: 98-103 (1991), to measure the proportion of spermatozoa that respond to a calcium ionophore (typically, A23187), developing an acrosome reaction. More specifically, this test was used to determine whether suramin sodium affects the ionophore-induced acrosome reaction of the sperm, therefore altering the capacity of sperm to penetrate an egg. Results are expressed in percent inhibition of control (untreated sperm) acrosome reactions. 2.
# HIV-1 clinical isolates = test: Clinical isolates in PBMC assay; assay type: cell-based
# Protocol: Peripheral blood mononuclear cells (PBMCs) were obtained from normal hepatitis and HIV-1 negative donors by ficoll hypaque gradient separation. Briefly, anti-coagulated blood is diluted 1:1 with Dulbecco's phosphate buffered saline without Ca^++ and Mg^++ (PBS) and layered over 14 mL of Lymphocyte separation media in a 50 ml centrifuge tube. Tubes were then centrifuged for 30 minutes at 600×g. Banded PBMCs were gently aspirated from the resulting interface and subsequently washed 2× with PBS by low speed centrifugation. The mononuclear cells were counted, viability was determined by Trypan Blue dye exclusion and the cells were resuspended in RPMI 1640 medium supplemented with 15% FBS (heat inactivated), 2 mM L-glutamine, 100 U/mL penicillin, 100 μg/mL streptomycin, and 10 μg/mL gentamycin with 20 U/mL recombinant IL-2 (R&D Systems, Minneapolis, Minn.). […]
# Human peripheral blood mononuclear cells from a minimum of two donors, that have been stimulated with PHS- and IL-2, were counted and their viability was determined by Trypan Blue dye exclusion and mixed in equal rations. Pooled donors were used to minimize the variability observed between individual donors, which results from quantitative and qualitative differences in HIV infection, and overall response to the PHA and IL-2 of primary lymphocyte populations. […]
# HSV-1 = test: HSV plaque assay, HSV-1; assay type: cell-based; settings: Human alphaherpesvirus 1; read-out: IC50 against HSV-1
# [2] = system: human sperm binding to zona pellucida; test: Hemizona assay (HZA), human sperm-zona binding; assay type: cell-based
# Protocol: The hemizona assay, as described in Burkman L. J., et al., Fertil. Steril., 49: 688-697 (1988), was used to measure the ability of sperm to undergo capacitation and bind to the zona pellucida of an oocyte. Briefly, in this assay, motile normal sperm were separated in media with bovine serum albumin, which triggers capacitation. Human motile sperm were separated using a swim-up technique and incubated with 1 mM suramin or solvent-control medium for 15 minutes in 100 μL medium droplets covered with mineral oil, at 37° C., 5% CO2. Sperm were then incubated with dead oocytes which are surrounded by the zona pellucida, an acellular coating of oocytes. Bisected hemizonae corresponding to one oocyte were placed each in the test (suramin) and control (solvent) droplets and incubated for an additional 4 hours. Sperm-hemizonae complexes were washed extensively and capacitated spermatozoa bound to the outer surface of the zonae and were counted under an inverted microscope. The Hemizona Index (HZI) was calculated by dividing the number of suramin-treated sperm bound to one hemizona by the number of untreated (control) sperm bound to the other hemizona.
smiles,measurement,setting,value
"Cc1ccc(C(=O)Nc2ccc(S(=O)(=O)O)c3cc(S(=O)(=O)O)cc(S(=O)(=O)O)c23)cc1NC(=O)c1cccc(NC(=O)Nc2cccc(C(=O)Nc3cc(C(=O)Nc4ccc(S(=O)(=O)O)c5cc(S(=O)(=O)O)cc(S(=O)(=O)O)c45)ccc3C)c2)c1 [Suramin, 8,8′-(carbonylbis(imino-3,1-phenylenecarbonylimino(4-methyl-3,1-phenylene)carbonylimino))bis-1,3,5-naphthalene trisulfonic acid]",effect on PR,rabbit sperm; 0.1 mg/mL,did not significantly reduce PR
same,inhibition of pregnancy rates (PR),rabbit sperm,86% inhibition
same,inhibition of pregnancy rates (PR),rabbit sperm; listed as suramin sodium,86%
same,"inhibition, rabbit pretreated sperm",rabbit sperm; 5% in KY Jelly (Table 6),100% inhibition
same,prevention of pregnancies,rabbit sperm; five percent (5%) concentration,completely prevented pregnancies
same,"Potency, Contraception, rabbit pretreated sperm (In-vitro mixing)","rabbit sperm; rabbit, in vivo",Moderate
same,Pregnancy Rate (%),rabbit sperm; suramin 0.1 mg/ml,83%
same,Implantation Sites (Mean ± SD),rabbit sperm; suramin 0.1 mg/ml,4.4 ± 0.8
same,Implantation Sites (Mean ± SD),"rabbit sperm; suramin 0.1 mg/ml, listed as suramin sodium",4.4±0.8
same,Number of Pregnant Females/Total,"rabbit sperm; suramin 0.1 mg/ml, sperm mixed 15 min before insemination",5/6
same,Pregnancy Rate (%),rabbit sperm; suramin 1.4 mg/ml,14%
same,Number of Pregnant Females/Total,rabbit sperm; suramin 1.4 mg/ml (1 mM),1/7
same,Implantation Sites (Mean ± SD),rabbit sperm; suramin 1.4 mg/ml,1
same,Pregnancy Rate (%),rabbit sperm; suramin 50 mg/ml,0%
same,Number of Pregnant Females/Total,rabbit sperm; suramin 50 mg/ml (5%),0/7
same,effect on spontaneous and ionophore-induced acrosome reaction,[1],neither to stimulate spontaneous acrosome reaction (acrosomal loss) nor to block the Ca^2+ ionophore-induced reaction
same,Percentage of acrosome-reacted Sperm,[1]; Calcium-ionophore treatment (5 μM A23187): +,31.4 ± 15.1%
same,Percentage of acrosome-reacted Sperm,[1]; Calcium-ionophore treatment (5 μM A23187): −,5.28 ± 1.93%
same,"Potency, Acrosome Reaction (ARIC)",[1]; induction or inhibition of acrosome reaction,None
same,"Potency, HIV-1 Clin Isolates",HIV-1 clinical isolates,High
same,IC50,"HIV-1 clinical isolates; Human immunodeficiency virus 1, PBMC, read-out: IC50 Clin Isolates",14.6 µg/mL
same,IC50,HSV-1,30 µg/mL
same,"Potency, ZP binding (HZA)",[2],High
same,Hemizona Index (HZI),"[2]; 1 mM, n=9",0.08±0.01
same,inhibition at 1000 µM,"[2]; Homo sapiens, Sperm, 1 mM",92%
